In patent EP0652009A1, “Identification and use of protease inhibitors” (ELI LILLY AND COMPANY, priority 1993, dated 1995):

Target: Cathepsin D (Homo sapiens, UniProt P07339)
Experiment: Assay 3: cathepsin D inhibition activity (non-cellular assay, chromogenic substrate)
Assay type: biochemical
Parameters: Frozen human placental tissue was thawed and homogenized; from tissue; host or cells: human placenta
Conditions: 4 µM test compound; inhibition of initial rate relative to control; cathepsin D from human placental tissue; read-out: % inhibition at 4µ M
Method: A third non-cellular assay for determining in vitro aspartyl protease inhibitory activity is generally described in Jupp, R.A. et al., (1990) Biochem. J., 265:871-878 and Rao et al., J. Med. Chem. (1993), in press. The assay is carried out by incubating a test compound with a suitable aspartyl protease, such as cathepsin D, in the presence of a chromogenic substrate. The inhibition constant, Ki, value may then be determined by quantifying the competitive inhibition of the hydrolysis of the chromogenic substrate. A variety of chromogenic substrates that are useful for assaying aspartyl protease activity are discussed in Dunn, et al., (1986) Biochem. J., 237:899-906. A preferred chromogenic substrate for a cathepsin D assay is disclosed in Scarborough, P.E. et al., Protein Science, (1993), 2:264-276.
Concentrations of substrate solutions and cleavage products may be verified using amino acid analysis. The enzyme preparations may be titrated with a tightly binding inhibitor to quantitate the active concentration of the enzyme. Enzyme concentrations are typically in the range of from 1-6 nM. Stock solutions of the test compound are prepared at concentrations ranging from 1.0 to 5.0 mg/mL, and then 50-100 µL portions of these stock solutions may be further diluted to a concentration in the range of 5 to 300 µM for rate determinations.
[…] Then, the test compounds are assayed over a concentration range of, for example, 5 to 300 µM for rate determinations.
A decrease in absorbance in the range of 284-324 nm may be monitored using a spectrophotometer. Absorbance readings are typically taken at various timepoints. The initial velocities are then plotted versus the initial substrate concentration. […] Estimates of Ki may then be determined using the Dixon construction. Dixon, M., (1953) Biochem J., 55:170-171.
If the ratio of the total active enzyme concentration to the estimated Ki value ([E]t/Ki) is less than 0.2, then the precise Ki value may be computed by using a non-linear curve fitting program based on the equation: v= Vmax [S]/[S] + Km (1 + [I]/Ki ) [formula] where v is the initial rate, [S] is the initial substrate concentration, [I] is the inhibitor concentration and Km and Ki are defined above. […] P.J.F., (1972) Biochem J., 127:321-333. This Assay is exemplfied in Assay 3.
The homogenate was centrifuged at 10,000 rpm for 30 minutes in a Sorvall GSA rotor. The supernatant was adjusted to pH 3.7 using 5.7N HCl and then sodium acetate was added to a concentration of 0.1M. The resultant mixture was incubated for 30 minutes at 0°C, resulting in the formation of a precipitate. This precipitate was removed by centrifugation (30 minutes, 10,000 rpm). The acidic supernatent was applied to a chromatography column (pepstatinyl agarose equilibrated with 0.1M sodium acetate, pH 3.5, 0.1% Brij 35, and 1M NaCl), washed until the OD₂₈₀ of the effluent returned to baseline, and then eluted with 50mM Tris-HCl, pH 8.6, 0.1% Brij 35, and 1M NaCl. The eluent was dialyzed against 10mM sodium phosphate, pH 7.0, 0.1% Brij 35, and 0.1M NaCl, and then applied to a 1 mL DEAE-Sephacel column equilibrated with the same buffer. Cathepsin D was recovered in the breakthrough fraction.
The enzyme mixture (125 µL buffer (0.1M sodium formate at pH 3.7), 1 µL of a 1mM solution of test compound, 4 µL of DMSO, enzyme and water to provide a total volume of 230 µL) was vortexed and prewarmed for four minutes before the addition of the chromogenic substrate. After warming, the enzyme mixture was added to 20 µL of a […] dilution of substrate solution. A control reaction mixture was similarly prepared without the addition of the test compound. The percent of inhibition of the initial rate of reaction in the presence of a particular concentration of test compound (i.e. 4 µM) may be determined for the test compound by monitoring the reaction mixture in parallel to the control reaction. […]

Cathepsin D, sequence (P07339 169-412 limits assumed): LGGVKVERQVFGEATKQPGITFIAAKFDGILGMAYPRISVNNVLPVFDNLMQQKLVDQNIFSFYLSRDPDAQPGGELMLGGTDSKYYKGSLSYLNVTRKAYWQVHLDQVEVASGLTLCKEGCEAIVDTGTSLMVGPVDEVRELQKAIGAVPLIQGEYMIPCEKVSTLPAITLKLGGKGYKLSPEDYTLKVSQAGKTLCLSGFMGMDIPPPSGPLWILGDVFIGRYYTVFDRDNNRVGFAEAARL
Cathepsin D, sequence (P07339 65-162 limits assumed): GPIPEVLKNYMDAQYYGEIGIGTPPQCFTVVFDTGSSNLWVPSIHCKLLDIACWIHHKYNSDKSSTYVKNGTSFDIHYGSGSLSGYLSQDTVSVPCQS

Compound	inhibition at 4 µM
CC(C)(C)NC(=O)c1ccccc1C[C@@H](O)[C@H](Cc1ccccc1)NC(=O)[C@H](CC(=O)NCc1ccccn1)NC(=O)c1ccc2ccccc2n1 [Example 16, [1S-(1R*,4R*,5S*)]-N-(1-(2-(N-2-Pyridylmethyl)amino)-2-oxoethyl]-2-oxo-3-aza-4-phenylmethyl-5-hydroxy-6-(2-(1-t-butylamino-1-oxomethyl)phenyl)hexyl)-2-quinolinyl carboxamide]	36%
CC(C)(C)NC(=O)c1ccccc1C[C@@H](O)[C@H](Cc1ccccc1)NC(=O)[C@H](Cc1cnc[nH]1)NC(=O)[C@@H](Cc1cccc2ccccc12)NC(=O)OC(C)(C)C [Example 28, [2R-(2R*,3S*,6S*,9R*)]-N-t-Butyl-2-[2-hydroxy-3-phenylmethyl-4,7-diaza-5,8-dioxo-6-(imidazol-4-ylmethyl)-9-N(t-butoxycarbonyl)amino-10-naphth-1-yl]decyl benzamide]	6%

Same assay, conditions: cathepsin D from human placental tissue, chromogenic substrate, pH 3.7, 37°C

Compound	Ki
CC(C)C(NC(=O)OCc1ccccc1)C(=O)NC(Cc1ccccc1)C1OC1C(Cc1ccccc1)NC(=O)C(NC(=O)OCc1ccccc1)C(C)C [Example 1, 1,6-Diphenyl-2(S);5(S)-di[N-[2(S)-N(benzyloxycarbonyl)amino-3-methyl-butanoyl]amino]-3,4-cis-epoxyhexane]	1160 ± 260 nM
CC[C@H](NC(=O)OCc1ccccc1)C(=O)N[C@@H](Cc1ccccc1)[C@@H]1O[C@@H]1[C@H](Cc1ccccc1)NC(=O)[C@H](CC)NC(=O)OCc1ccccc1 [Example 2, 1,6-Diphenyl-2(S);5(S)-di[N-[2(S)-N(benzyloxycarbonyl)aminobutanoyl]amino]-3,4-cis-epoxyhexane]	750 ± 140 nM
CC(C)(C)NC(=O)c1ccccc1CC(O)C(Cc1ccccc1)NC(=O)C(CC(N)=O)NC(=O)C(Cc1cccc2ccccc12)NC(=O)OC(C)(C)C (stereo not drawn) [Example 25, [2R-(2R*,3S*,6S*,9R*)]-N-t-Butyl-2-[2-hydroxy-3-phenylmethyl-4,7-diaza-5,8-dioxo-6-(2-amino-2-oxoethyl)-9-N(t-butoxycarbonyl)amino-10-naphth-1-yl]decyl benzamide]	1440 ± 260 nM

Continued, values first:

Ki	Compound
420 ± 60 nM	Cc1ccc(CC(O)C(Cc2ccccc2)NC(=O)C(CC(N)=O)NC(=O)c2ccc3ccccc3n2)c(C(=O)NC(C)(C)C)c1 (stereo not drawn) [Example 7, [1S-(1R*,4R*,5S*)]-N-[1-(2-Amino-2-oxoethyl)-2-oxo-3-aza-4-phenylmethyl-5-hydroxy-6-(2-(1-t-butylamino-1-oxomethyl)-4-methylphenyl)hexyl]-2-quinolinyl carboxamide]
900 ± 100 nM	CC(C)(C)NC(=O)c1ccccc1CC(O)C(Cc1ccccc1)NC(=O)C(CC(N)=O)NC(=O)c1ccc2cccc(C(F)(F)F)c2n1 (stereo not drawn) [Example 22, [1S-(1R*,4R*,5S*)]-N-(1-(2-Amino-2-oxoethyl)-2-oxo-3-aza-4-phenylmethyl-5-hydroxy-6-(2-(1-t-butylamino-1-oxomethyl)phenyl)hexyl)-8-trifluoromethyl-quinolin-2-yl carboxamide]
6200 nM	CCC(NC(=O)N(C)Cc1ccc2ccccc2n1)C(=O)NC(Cc1ccccc1)C1OC1C(Cc1ccccc1)NC(=O)C(CC)NC(=O)N(C)Cc1ccc2ccccc2n1 [Example 4, 1,6-Diphenyl-2(S);5(S)-di[N-[2(S)-N-[[N(methyl)-N(quinolin-2-ylmethyl)amino]carbonyl]aminobutanoyl]amino]-3,4-cis-epoxyhexane]
